According to patent US20150231130A1, “PHARMACEUTICAL COMPOSITION COMPRISING DIAMORPHINE FOR INTRANASAL ADMINISTRATION” (WOCKHARDT LIMITED, priority 2012, published 2015):
“Also recorded” adds a separate entry of the source.

Experiments:
[1] = Adverse events, open label single dose clinical study of diamorphine hydrochloride nasal spray in children; type: in vivo; settings: single intranasal dose
Excerpt: (§1) An open label, single dose, sparse sampling pharmacokinetic dentate study in children aged from 1-<16 years attending hospital clinics for minor day surgery or laser treatment and requiring intravenous cannulation and opiate analgesia for their routine clinical management. The cannulation site on the child's arm was numbed with local anaesthetic cream, and a cannula was inserted. The child was then anaesthetized and a baseline blood sample taken. The child received 1-3 sprays of intranasal diamorphine, depending on their weight, and another blood sample was taken as soon as possible (from 0-10 minutes) post dose. Up to four further pharmacokinetic blood samples were taken from the cannula for the purposes of the study spaced out over the following time windows: 10-20 minutes, 20-30 minutes, 30-45 minutes, 45-60 minutes, 60-120 minutes and between 120 minutes post dose and removal of the cannula. Plasma acetylmorphine, morphine, morphine-3-glucuronide, and morphine-6-glucuronide concentrations were determined. The data from all children taking part in the trial was pooled and analysed together to avoid excessive blood sampling. Population pharmacokinetic parameters were estimated by using a non-linear mixed effects dentate approach. Adverse events, vital signs, nasal tolerance and pain scores were also monitored. […]

[2] = system: human plasma proteins; settings: cited from earlier work
[3] = in presence of water degrades; cited from earlier work
[4] = FLACC total pain scores, open label single dose clinical study of diamorphine hydrochloride nasal spray in children; type: in vivo; settings: 0.1 mg/kg body weight intranasally; children aged 1-<16 years
Excerpt: as §1, with “Up to four further pharmacokinetic blood samples were taken from the cannula for the purposes of the study spaced out over the following time windows: 10-20 minutes, 20-30 minutes, 30-45 minutes, 45-60 minutes, 60-120 minutes and between 120 minutes post dose and removal of the cannula.” left out, “Population pharmacokinetic parameters were estimated by using a non-linear mixed effects dentate approach.” left out
For assessing the effectiveness of the Diamorphine Hydrochloride Nasal Spray pain scores were measured. The investigators or nurses measured the FLACC scores. The total score was based on 5 categories: (F) Face; (L) Legs; (A) Activity; (C) Cry; (C) Consolability; are scored between […]. […]

[5] = Respiratory depression (clinically notable changes in vital signs) in the clinical study; type: in vivo, children; settings: single intranasal dose, 0.1 mg/kg body weight
Excerpt: as §1

[6] = cited from earlier work
[7] = 0.1 mg/kg of body weight, intravenous injection; cited from earlier work

Q: Which “Incidence of adverse events (in words)” value [1] does the source give for `CC(=O)Oc1ccc2c3c1OC1[C@@H](OC(C)=O)C=C[C@H]4[C@@H](C2)N(C)CC[C@]314` (some centres unmarked) [diamorphine, 3,6-diacetyl ester of morphine] here?
A: Its value is “very low”.

Q: And the “Protein binding (in words)” value [2]?
A: Its value is “does not bind to protein”.

Q: What about the “Stability in liquid dosage form (in words)” value [3] of the same compound?
A: Its value is “highly unstable in liquid dosage form”.

Q: And the “Analgesic effectiveness (in words)” value [4]?
A: Its value is “effective alone in producing the analgesic effects”.

Q: And the “Respiratory depression (clinically notable changes in vital signs)” value [5]?
A: The value was “free from the major side effects such as respiratory depression; also recorded: No respiratory depressant effect was observed”.

Q: And the half-life ([6]; in man)?
A: Its half-life is “two to three”.

Q: And the “Duration of analgesic effect” value ([6]; in vivo)?
A: Its value is “three to four”.

Q: And the “Respiratory depressant effect (in words)” value [7]?
A: The value was “respiratory depressant effect is reported”.
